By MIC is commonly meant the least concentration at which growth counts as inhibited. The melting point is the temperature, or range, at which the solid turns liquid.

The test system of series [1] is Staphylococcus aureus ATCC 33591. As to the kind of experiment: Antibacterial MIC, multidrug-resistant clinical isolate. It counts as cell-based. The conditions noted are these: Staphylococcus aureus, ATCC33591; multidrug-resistant S. aureus ATCC 33591; read-out: MIC. The procedure: (§1) Test bacteria were grown to mid-log phase in Mueller–Hinton broth (MHB) or Tryptone Soya Broth (TSB) and diluted 1000-fold in the same medium. Bacteria (10^5 CFU/mL) were inoculated into MHB or TSB and dispensed at 0.2 ml/well into a 96-well microtiter plate. As positive controls, gatifloxacin, moxifloxacin, norfloxacin, oxacillin, and penicillin were used. […] Bacterial growth was determined by measuring the absorption at 630 nm using a microplate reader. All experiments were carried out three times.
(§2) The evaluation of antibacterial activity of all compounds (3a–3j and 6a–6k) was performed by a serial dilution method to determine the MIC against a panel of pathogens comprising five Gram-positive strains (S. aureus (CMCC(B) 26003 and CMCC 25923), Streptococcus mutans BNCC 336931, Enterococcus faecalis CMCC 29212, and Bacillus subtilis CMCC 63501), four Gram-negative strains (E. coli (CMCC 25922 and CMCC 44568) and P. aeruginosa (CMCC 27853 and CMCC 10104)), as well as three methicillin-resistant clinical isolates (S. aureus ATCC 43300 and ATCC 33591, P. aeruginosa ATCC BAA-2111). The results are described in Tables 1 and 2. Gatifloxacin, moxifloxacin, norfloxacin, oxacillin, and penicillin were used as positive controls.

Series [2] deals with Staphylococcus aureus ATCC 43300. Described as above. It counts as cell-based. The conditions noted are these: Staphylococcus aureus, ATCC43300; multidrug-resistant S. aureus ATCC 43300; read-out: MIC. The procedure:
as §1, §2

The subject of series [3] is Enterococcus faecalis CMCC 29212. Put plainly: Antibacterial MIC, serial dilution. The format is cell-based. Conditions: Enterococcus faecalis, CMCC29212; E. faecalis CMCC 29212, 24 h, 37 °C; read-out: MIC. The procedure: as §1, §2
Series [4] deals with Escherichia coli CMCC 44568. Put plainly: Antibacterial MIC, serial dilution. The format is cell-based. Conditions: Escherichia coli. The procedure: as §1, §2
Series [5] concerns Escherichia coli CMCC 25922. Put plainly: Antibacterial MIC, serial dilution. The format is cell-based. Conditions: Escherichia coli. The procedure: as §1, §2
For series [6], the system named is Pseudomonas aeruginosa CMCC 10104. As to the kind of experiment: Antibacterial MIC, serial dilution. Conditions: Pseudomonas aeruginosa, CMCC10104; P. aeruginosa CMCC 10104, 24 h, 37 °C; read-out: MIC. The format is cell-based. The procedure: as §1, §2
For series [7], the system named is Pseudomonas aeruginosa CMCC 27853. As to the kind of experiment: Antibacterial MIC, serial dilution. It counts as cell-based. Conditions: Pseudomonas aeruginosa. The procedure:
as §1, §2

For series [8], the system named is Staphylococcus aureus CMCC(B)26003. Put plainly: Antibacterial MIC, serial dilution. It counts as cell-based. Conditions: Staphylococcus aureus. The procedure:
as §1, §2

In series [9] the test system is Bacillus subtilis CMCC 63501. Put plainly: Antibacterial MIC, serial dilution. It counts as cell-based. Conditions: Bacillus subtilis. The procedure: as §1, §2
The subject of series [10] is Streptococcus mutans BNCC 336931. As to the kind of experiment: Antibacterial MIC, serial dilution. Conditions: Streptococcus mutans, BNCC336931; S. mutans BNCC 336931, 24 h, 37 °C; read-out: MIC. The format is cell-based. The procedure: as §1, §2
In series [11] the test system is Staphyiococcus aureus CMCC 25923. As to the kind of experiment: Antibacterial MIC, serial dilution. It counts as cell-based, Staphylococcus aureus. The conditions noted are these: Staphylococcus aureus. The procedure: as §1, §2
Setting [12] is: CMCC25922, E. coli CMCC 25922, 24 h, 37 °C, read-out: MIC.
Setting [13] is: S. aureus CMCC(B)26003, 24 h, 37 °C, read-out: MIC.
The mark [14] stands for this setting: CMCC25923, S. aureus CMCC 25923, 24 h, 37 °C, read-out: MIC.
Where [15] appears, read: CMCC44568, E. coli CMCC 44568, 24 h, 37 °C, read-out: MIC.
Setting [16] is: CMCC27853, P. aeruginosa CMCC 27853, 24 h, 37 °C, read-out: MIC.
[17] abbreviates: CMCC63501, B. subtilis CMCC 63501, 24 h, 37 °C, read-out: MIC.

Each structure is given as a SMILES string. Converted amounts (≈) assume the structure as drawn. Read-outs that look alike come from different tables or passages of the source.

In the case of `Cc1onc(-c2ccccc2)c1C(=O)N[C@@H]1C(=O)N2[C@@H]1SC(C)(C)[C@@H]2C(=O)O` [Oxacillin, reference compound], the MIC in series [1] is 8 µg/mL (≈ 19.9 µM); in series [2], 64 µg/mL (≈ 159 µM); in [3], 128 µg/mL (≈ 319 µM); in series [4] (CMCC44568, 24 h), greater than 128 µg/mL; in [5] (setting [12]) it was 128 µg/mL (≈ 319 µM); in [6], 128 µg/mL (≈ 319 µM). Besides, the MIC is greater than 128 µg/mL in series [7] (CMCC27853, 24 h); 0.125 µg/mL (≈ 0.311 µM) in [8] (setting [13]); greater than 128 µg/mL in series [9] (CMCC63501, 24 h); 0.125 µg/mL (≈ 0.311 µM) in series [10]; 0.125 µg/mL (≈ 0.311 µM) in series [11] (setting [14]).

With `N=C(N)NN=Cc1ccc(C#Cc2ccc(Br)cc2)cc1` [Compound 3j, 2-(4-((4-Bromophenyl)ethynyl)benzylidene)hydrazine-1-carboximidamide], the melting point was 242 to 243 °C. In series [1], the MIC was determined as 0.5 µg/mL (≈ 1.47 µM). In series [2], the MIC came to 2 µg/mL (≈ 5.86 µM). In [3], the MIC worked out at 0.5 µg/mL (≈ 1.47 µM). Further, in series [4] (setting [15]), the MIC was determined as 128 µg/mL (≈ 375 µM). Moreover, the minimum inhibitory concentration (MIC) in [5] (setting [12]) amounted to 2 µg/mL (≈ 5.86 µM). The MIC in series [6] amounted to 128 µg/mL (≈ 375 µM). Besides, the MIC in series [7] (setting [16]) is greater than 128 µg/mL. The MIC in series [8] (setting [13]) is 0.5 µg/mL (≈ 1.47 µM). Further, the MIC in series [9] (setting [17]) stood at 128 µg/mL (≈ 375 µM). In addition, in [10], the MIC is 0.5 µg/mL (≈ 1.47 µM). In addition, the minimal inhibitory concentration (MIC) in series [11] (setting [14]) stood at 1 µg/mL (≈ 2.93 µM).

On to `COc1c(N2C[C@@H]3CCCN[C@@H]3C2)c(F)cc2c(=O)c(C(=O)O)cn(C3CC3)c12` [Moxifloxacin, reference compound], for which the MIC came out at 0.25 µg/mL (≈ 0.623 µM) in series [1]; 0.5 µg/mL (≈ 1.25 µM) in series [2]; 0.125 µg/mL (≈ 0.311 µM) in series [4] (CMCC44568, 24 h); 0.125 µg/mL (≈ 0.311 µM) in [5] (CMCC25922, 24 h); 4 µg/mL (≈ 9.96 µM) in series [6]; 0.125 µg/mL (≈ 0.311 µM) in [8] (24 h). The MIC in series [10] stood at 0.5 µg/mL (≈ 1.25 µM); in [11] (CMCC25923, 24 h), 0.125 µg/mL (≈ 0.311 µM).

As for `N=C(N)NN=Cc1ccc(C#Cc2ccccc2Br)cc1` [Compound 3h, 2-(4-((2-Bromophenyl)ethynyl)benzylidene)hydrazine-1-carboximidamide], the melting point lay in the range of 188 to 190 °C. Besides, in series [3], the MIC was found to be 1 µg/mL (≈ 2.93 µM). In series [4] (setting [15]), the MIC came out at 4 µg/mL (≈ 11.7 µM). In addition, the MIC in series [5] (setting [12]) was found to be 4 µg/mL (≈ 11.7 µM). Further, the MIC in [6] turned out to be 8 µg/mL (≈ 23.4 µM). Besides, in series [7] (setting [16]), the MIC is greater than 128 µg/mL. The MIC in series [8] (setting [13]) amounted to 2 µg/mL (≈ 5.86 µM). Moreover, the MIC in series [9] (setting [17]) was 2 µg/mL (≈ 5.86 µM). Also, the MIC in [10] came out at 2 µg/mL (≈ 5.86 µM). For the same compound, the MIC in series [11] (setting [14]) worked out at 1 µg/mL (≈ 2.93 µM).

`N=C(N)NN=Cc1ccc(C#CC#Cc2cccc(F)c2)cc1` [Compound 6c, 2-(4-((3-Fluorophenyl)buta-1,3-diyn-1-yl)benzylidene)hydrazine-1-carboximidamide] came in with a melting point of 186 to 190 °C. Also, the MIC in series [3] came to 0.5 µg/mL (≈ 1.64 µM). Besides, the MIC in [4] (setting [15]) was greater than 128 µg/mL. The MIC in series [5] (setting [12]) came out at 2 µg/mL (≈ 6.57 µM). Moreover, the MIC in [6] was found to be 4 µg/mL (≈ 13.1 µM). The MIC in [7] (setting [16]) was greater than 128 µg/mL. Besides, in series [8] (setting [13]), the MIC was 128 µg/mL (≈ 421 µM). Further, the MIC in series [9] (setting [17]) worked out at 2 µg/mL (≈ 6.57 µM). Also, the MIC in series [10] amounted to 0.5 µg/mL (≈ 1.64 µM). For the same compound, in series [11] (setting [14]), the MIC was 128 µg/mL (≈ 421 µM).

Compound `N=C(N)NN=Cc1ccc(C#CC#Cc2ccccc2Br)cc1` [Compound 6h, 2-(4-((2-Bromophenyl)buta-1,3-diyn-1-yl)benzylidene)hydrazine-1-carboximidamide] came in with a melting point of 217 to 219 °C. Besides, the MIC in series [3] was 0.5 µg/mL (≈ 1.37 µM). For the same compound, in series [4] (setting [15]), the minimal inhibitory concentration (MIC) came out at 128 µg/mL (≈ 350 µM). Moreover, the minimal inhibitory concentration (MIC) in series [5] (setting [12]) was 8 µg/mL (≈ 21.9 µM). Also, in [6], the MIC was determined as 8 µg/mL (≈ 21.9 µM). Also, in series [7] (setting [16]), the MIC was greater than 128 µg/mL. Moreover, the MIC in series [8] (setting [13]) stood at 1 µg/mL (≈ 2.74 µM). In series [9] (setting [17]), the MIC amounted to 2 µg/mL (≈ 5.48 µM). Further, the MIC in series [10] is 1 µg/mL (≈ 2.74 µM). Moreover, the MIC in series [11] (setting [14]) came out at 32 µg/mL (≈ 87.6 µM).

The values are drawn from article PMC6968633, “Synthesis, antibacterial and anticancer activity, and docking study of aminoguanidines containing an alkynyl moiety” (Journal of Enzyme Inhibition and Medicinal Chemistry, 2019).
